Test results as given in ChEMBL document CHEMBL1124237, “Linear free energy relationship studies of enzyme active site binding: thymidylate synthase” (J Med Chem, 1988).
pKi: −log10 of the molar value.

Experiments:
[1] = target: Thymidylate synthase (Mus musculus, UniProt P07607); experiment: Inhibitory effect on murine leukemia (L1210) thymidylate synthase
[2] = target: Thymidylate synthase (Homo sapiens, UniProt P04818); experiment: Inhibitory effect on human lymphoblast (Molt/4F) thymidylate synthase
Chain of Thymidylate synthase (Homo sapiens, UniProt P04818) (P04818 whole entry): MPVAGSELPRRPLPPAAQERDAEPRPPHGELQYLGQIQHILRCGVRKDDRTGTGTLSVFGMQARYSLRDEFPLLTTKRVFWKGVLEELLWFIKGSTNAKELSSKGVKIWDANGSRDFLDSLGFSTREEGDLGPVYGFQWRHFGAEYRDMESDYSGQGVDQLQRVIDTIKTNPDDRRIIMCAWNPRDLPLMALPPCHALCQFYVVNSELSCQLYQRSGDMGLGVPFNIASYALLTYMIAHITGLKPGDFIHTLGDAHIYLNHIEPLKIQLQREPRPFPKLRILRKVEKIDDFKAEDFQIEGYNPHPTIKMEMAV

[3] = target: T1, Thymidylate synthase (Lactobacillus casei, UniProt P00469); experiment: Inhibitory effect on Lactobacillus casei thymidylate synthase; set-up: species or system Lacticaseibacillus casei
T1 sequence (P00469 whole entry): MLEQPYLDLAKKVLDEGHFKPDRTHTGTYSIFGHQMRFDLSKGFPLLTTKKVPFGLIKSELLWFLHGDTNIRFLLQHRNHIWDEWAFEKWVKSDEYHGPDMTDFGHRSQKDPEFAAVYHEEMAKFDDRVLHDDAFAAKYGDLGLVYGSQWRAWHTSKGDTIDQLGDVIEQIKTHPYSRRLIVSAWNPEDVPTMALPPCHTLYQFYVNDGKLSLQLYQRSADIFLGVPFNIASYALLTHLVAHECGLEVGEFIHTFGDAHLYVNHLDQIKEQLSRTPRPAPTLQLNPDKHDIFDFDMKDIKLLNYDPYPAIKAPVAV

Chain of Thymidylate synthase (Mus musculus, UniProt P07607) (P07607 whole entry): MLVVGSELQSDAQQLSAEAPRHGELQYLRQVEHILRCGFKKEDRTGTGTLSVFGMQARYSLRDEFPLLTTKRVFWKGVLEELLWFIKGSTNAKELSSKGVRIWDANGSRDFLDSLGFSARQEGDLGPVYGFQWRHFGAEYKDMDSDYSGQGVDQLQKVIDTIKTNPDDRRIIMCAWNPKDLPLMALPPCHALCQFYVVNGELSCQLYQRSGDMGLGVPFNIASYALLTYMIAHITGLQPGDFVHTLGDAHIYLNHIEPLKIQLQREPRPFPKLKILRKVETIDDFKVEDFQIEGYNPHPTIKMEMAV

Compound	pKi [1]	pKi [2]	pKi [3]
O=c1[nH]c(=O)n([C@H]2C[C@H](O)[C@@H](COP(=O)(O)O)O2)cc1-c1ccc(OCc2ccccc2)cc1	4.95		
Nc1ccc(-c2cn([C@H]3C[C@H](O)[C@@H](COP(=O)(O)O)O3)c(=O)[nH]c2=O)cc1	4.95		5.95
O=c1[nH]c(=O)n([C@H]2C[C@H](O)[C@@H](COP(=O)(O)O)O2)cc1-c1ccc([N+](=O)[O-])cc1	4.32		5.19
Cc1ccc(-c2cn([C@H]3C[C@H](O)[C@@H](COP(=O)(O)O)O3)c(=O)[nH]c2=O)cc1	5.08		
O=c1[nH]c(=O)n([C@H]2C[C@H](O)[C@@H](COP(=O)(O)O)O2)cc1-c1ccccc1	4.91		6.02
COC(=O)c1ccc(-c2cn([C@H]3C[C@H](O)[C@@H](COP(=O)(O)O)O3)c(=O)[nH]c2=O)cc1	4.34	3.99	5.40
O=c1[nH]c(=O)n([C@H]2C[C@H](O)[C@@H](COP(=O)(O)O)O2)cc1-c1ccc(C(F)(F)F)cc1	4.03		5.31
O=c1[nH]c(=O)n([C@H]2C[C@H](O)[C@@H](COP(=O)(O)O)O2)cc1-c1ccc(O)cc1	3.75	3.87	5.12

The next lines start with the values.

pKi [1]	pKi [2]	pKi [3]	Compound
4.01	3.94	5.06	N#Cc1ccc(-c2cn([C@H]3C[C@H](O)[C@@H](COP(=O)(O)O)O3)c(=O)[nH]c2=O)cc1
3.95	3.92	5.25	NC(=O)c1ccc(-c2cn([C@H]3C[C@H](O)[C@@H](COP(=O)(O)O)O3)c(=O)[nH]c2=O)cc1
4.32		5.85	CN(C)c1ccc(-c2cn([C@H]3C[C@H](O)[C@@H](COP(=O)(O)O)O3)c(=O)[nH]c2=O)cc1
4.48		5.92	COc1ccc(-c2cn([C@H]3C[C@H](O)[C@@H](COP(=O)(O)O)O3)c(=O)[nH]c2=O)cc1
4.53		5.74	O=c1[nH]c(=O)n([C@H]2C[C@H](O)[C@@H](COP(=O)(O)O)O2)cc1-c1ccc(Br)cc1
